These results are taken from patent publication EP4692062A1, “NOVEL AMIDE-BASED COMPOUND AND COMPOSITION COMPRISING SAME” (Amorepacific Corporation, priority 2023, dated 2024).

What all share (type): biochemical
One assay addresses T1, MMP-1 (Homo sapiens, UniProt P03956).
T1 construct: purchased Abchem (so in the source)
T1 sequence (P03956 100-269 limits assumed): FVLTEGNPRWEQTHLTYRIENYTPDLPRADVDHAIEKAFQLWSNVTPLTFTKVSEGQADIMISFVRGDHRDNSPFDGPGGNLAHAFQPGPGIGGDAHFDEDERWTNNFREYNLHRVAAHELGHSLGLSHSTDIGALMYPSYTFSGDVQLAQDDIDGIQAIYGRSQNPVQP
Description: MMP1 Inhibitor Screening Assay Kit (ab139443), colorimetric thiopeptide substrate, OD412. The following applies: for remaining activity at 0.5 µM / remaining activity at 10 µM: remaining enzyme activity; for remaining activity at 0.5 µM: untreated group = 100%, compound at 0.5 uM, n=2; for inhibition at 10 µM / remaining activity at 10 µM: T-05~20 at 10 uM; for inhibition at 10 µM: read-out: MMP-1 (%) (inhibitory efficacy, high concentration); for remaining activity at 10 µM: read-out: MMP-1 (%) (enzyme activity, high concentration). The method, then:
Enzyme activity (%) at the same concentration was compared with treatment with 0.5 µM MMP-1 activity and 50 nM MMP-2 and MMP-9 activity (n=2). Here, enzyme activity (%) refers to the enzyme activity (%) of the experimental group when the untreated group is considered to have 100% enzyme activity.
To evaluate the effect of the new compound on the enzyme activity, the color change was measured by following the provided protocol using a kit sold by Abchem as follows.
As MMP activity increases, the substrate is decomposed and the OD412 level increases. Therefore, the change in OD412 level (OD value) per minute was measured and the value was obtained according to the enzyme activity calculation formula below. […] (ε=13,600 M^-1cm^-1 above pH 6.0)
New compound enzyme activity(%) = (Vnew compound/Vuntreated group)*100 [formula] V = change in OD value per minute

Assay [1] deals with T2, MMP-2 (Homo sapiens, UniProt P08253).
T2 construct: purchased Abchem (so in the source)
T2 sequence (P08253 110-660): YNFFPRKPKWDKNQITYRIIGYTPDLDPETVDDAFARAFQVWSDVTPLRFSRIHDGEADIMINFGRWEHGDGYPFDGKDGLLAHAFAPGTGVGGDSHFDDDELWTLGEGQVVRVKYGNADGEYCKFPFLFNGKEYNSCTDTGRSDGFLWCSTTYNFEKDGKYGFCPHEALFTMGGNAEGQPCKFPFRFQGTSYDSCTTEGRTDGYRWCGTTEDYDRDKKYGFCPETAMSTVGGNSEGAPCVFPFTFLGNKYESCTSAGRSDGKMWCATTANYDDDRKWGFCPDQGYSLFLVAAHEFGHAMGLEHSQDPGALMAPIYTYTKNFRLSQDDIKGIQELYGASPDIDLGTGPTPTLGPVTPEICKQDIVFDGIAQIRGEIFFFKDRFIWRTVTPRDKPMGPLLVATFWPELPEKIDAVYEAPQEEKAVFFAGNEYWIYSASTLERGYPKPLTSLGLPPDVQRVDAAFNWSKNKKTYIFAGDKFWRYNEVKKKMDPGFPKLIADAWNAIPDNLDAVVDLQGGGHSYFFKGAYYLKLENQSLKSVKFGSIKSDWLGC
Description: MMP2 Inhibitor Screening Assay Kit (ab139446), colorimetric thiopeptide substrate, OD412. The following applies: remaining enzyme activity, untreated group = 100%; compound at 50 nM; n=2. The method, then: Enzyme activity (%) at the same concentration was compared with treatment with 0.5 µM MMP-1 activity and 50 nM MMP-2 and MMP-9 activity (n=2). Here, enzyme activity (%) refers to the enzyme activity (%) of the experimental group when the untreated group is considered to have 100% enzyme activity. To evaluate the effect of the new compound on the enzyme activity, the color change was measured by following the provided protocol using a kit sold by Abchem as follows. […] Therefore, the change in OD412 level (OD value) per minute was measured and the value was obtained according to the enzyme activity calculation formula below. […] (ε=13,600 M^-1cm^-1 above pH 6.0) New compound enzyme activity(%) = (Vnew compound/Vuntreated group)*100 [formula] V = change in OD value per minute

The next assay has as its target T3, MMP-9 (Homo sapiens, UniProt P14780).
T3 construct: purchased Abchem (so in the source)
Description: MMP9 Inhibitor Screening Assay Kit (ab139448), colorimetric thiopeptide substrate, OD412. To be noted: compound at 50 nM; for remaining activity at 0.05 µM: remaining enzyme activity, untreated group = 100%, n=2; for inhibition at 0.05 µM: read-out: MMP-9 (%) at 50 nM (inhibitory activity). The method, then: Enzyme activity (%) at the same concentration was compared with treatment with 0.5 µM MMP-1 activity and 50 nM MMP-2 and MMP-9 activity (n=2). Here, enzyme activity (%) refers to the enzyme activity (%) of the experimental group when the untreated group is considered to have 100% enzyme activity. To evaluate the effect of the new compound on the enzyme activity, the color change was measured by following the provided protocol using a kit sold by Abchem as follows. Enzyme activity was obtained by comparing absorbance per minute with the untreated group. • MMP1 Inhibitor Screening Assay Kit (ab139443) • MMP2 Inhibitor Screening Assay Kit (ab139446) • MMP9 Inhibitor Screening Assay Kit (ab139448) As MMP activity increases, the substrate is decomposed and the OD412 level increases. Therefore, the change in OD412 level (OD value) per minute was measured and the value was obtained according to the enzyme activity calculation formula below. Here, OD412 means optical density or absorbance at 412 nm. • Thiopeptide (Ac-PLG-[2-mercapto-4-methyl-pentanoyl]-LG-OC2H5) as a chromogenic substrate. • The MMP cleavage site peptide bond was replaced by the thioester bond of the thiopeptide. • Hydrolysis of this bond by MMP generates a sulfhydryl group, which reacts with DTNB [5,5'-dithiobis(2-nitrobenzoic acid), Ellman's reagent] to form 2-nitro-5-thiobenzoic acid. , which can be measured by its absorbance at 412 nm. (ε=13,600 M^-1cm^-1 above pH 6.0) New compound enzyme activity(%) = (Vnew compound/Vuntreated group)*100 [formula] V = change in OD value per minute

Assay [2] has as its target T2, MMP-2. Description: MMP2 Inhibitor Screening Assay Kit (ab139446), colorimetric thiopeptide substrate, OD412. To be noted: T-05~20 at 10 uM; for inhibition at 10 µM: read-out: MMP-2 (%) (inhibitory efficacy, high concentration); for remaining activity at 10 µM: remaining enzyme activity, read-out: MMP-2 (%) (enzyme activity, high concentration).

T3 sequence (P14780 94-707): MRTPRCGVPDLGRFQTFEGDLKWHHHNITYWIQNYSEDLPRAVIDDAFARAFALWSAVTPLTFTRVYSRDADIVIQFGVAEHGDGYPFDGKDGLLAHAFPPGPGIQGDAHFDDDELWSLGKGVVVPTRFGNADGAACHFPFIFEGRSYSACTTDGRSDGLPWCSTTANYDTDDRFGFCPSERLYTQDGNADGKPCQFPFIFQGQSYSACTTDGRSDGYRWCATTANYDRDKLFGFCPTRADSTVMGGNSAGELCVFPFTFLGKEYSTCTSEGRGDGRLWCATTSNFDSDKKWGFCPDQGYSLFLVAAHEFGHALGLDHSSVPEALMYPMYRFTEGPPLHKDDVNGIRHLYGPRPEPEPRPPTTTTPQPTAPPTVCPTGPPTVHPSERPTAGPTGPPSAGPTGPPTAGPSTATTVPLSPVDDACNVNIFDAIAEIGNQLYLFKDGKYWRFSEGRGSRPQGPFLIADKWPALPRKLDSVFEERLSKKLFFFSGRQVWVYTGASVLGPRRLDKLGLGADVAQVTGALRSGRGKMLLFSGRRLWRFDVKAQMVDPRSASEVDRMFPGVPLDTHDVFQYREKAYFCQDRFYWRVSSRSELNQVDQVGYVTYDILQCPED

At MMP-1, `CCCc1ccc(S(=O)(=O)N2CCCCC2C(=O)NO)cc1` (stereo not drawn) [T-24, N-hydroxy-1-((4-propylphenyl)sulfonyl)piperidine-2-carboxamide] returned a remaining activity at 0.5 µM of 78.4%. Moreover, the figures for the remaining activity at 0.05 µM on MMP-2 [1] and on MMP-9 were 57.7% and 99%, respectively.

`CC(=O)Nc1ccc(S(=O)(=O)N2CCCC2C(=O)NO)cc1` (stereo not drawn) [T-40, 1-((4-acetamidophenyl)sulfonyl)-N-hydroxypyrrolidine-2-carboxamide] came in with a remaining activity at 0.5 µM on MMP-1 of 100%. Moreover, the remaining activity at 0.05 µM at MMP-2 [1] and at MMP-9 was 100% in each case.

As for `CC(C)(C)c1ccc(S(=O)(=O)NC(Cc2ccccc2)C(=O)NO)cc1` (stereo not drawn) [T-08, 2-((4-(tert-butyl)phenyl)sulfonamido)-N-hydroxy-3-phenylpropanamide], at MMP-1, the inhibition at 10 µM was found to be 12.8%, the remaining activity at 0.5 µM was 100% and the remaining activity at 10 µM is 87.2%. The remaining activity at 0.05 µM on MMP-2 [1] came out at 100%. At MMP-9, this compound displayed a remaining activity at 0.05 µM of 100%. On MMP-2 [2], the inhibition at 10 µM was 0% and the remaining activity at 10 µM was determined as 100%.

On MMP-9, `CCCCOc1ccc(S(=O)(=O)N2CCCCC2C(=O)NO)cc1` (stereo not drawn) [T-04, 1-((4-butoxyphenyl)sulfonyl)-N-hydroxypiperidine-2-carboxamide] registered a remaining activity at 0.05 µM of 0%.

On MMP-9, `CC(=NO)c1ccc(S(=O)(=O)N2CCCCC2C(=O)NO)cc1` (stereo not drawn) [T-35, N-hydroxy-1-((4-(1-(hydroxyimino)ethyl)phenyl)sulfonyl)piperidine-2-carboxamide] gave a remaining activity at 0.05 µM of 19.9%.

With `Cc1cc(C)c(S(=O)(=O)NC(Cc2ccccc2)C(=O)NO)c(C)c1` (stereo not drawn) [T-10, N-hydroxy-3-phenyl-2-((2,4,6-trimethylphenyl)sulfonamido)propanamide], at MMP-1, the inhibition at 10 µM worked out at 0%, the remaining activity at 0.5 µM is 100% and the remaining activity at 10 µM came to 100%. Besides, the remaining activity at 0.05 µM at MMP-2 [1] turned out to be 95.6%. Besides, the remaining activity at 0.05 µM on MMP-9 came out at 100%. At MMP-2 [2], the inhibition at 10 µM stood at 15.5% and the remaining activity at 10 µM was determined as 84.5%.

In the case of `Cc1cc(C)c(S(=O)(=O)NC(CC(C)C)C(=O)NO)c(C)c1` (stereo not drawn) [T-15, N-hydroxy-4-methyl-2-((2,4,6-trimethylphenyl)sulfonamido)pentanamide], at MMP-1, the inhibition at 10 µM turned out to be 0%, the remaining activity at 0.5 µM is 100% and the remaining activity at 10 µM came to 100%. Also, the remaining activity at 0.05 µM on MMP-2 [1] was found to be 100%. On MMP-9, this compound had a remaining activity at 0.05 µM of 100%. In addition, at MMP-2 [2], the inhibition at 10 µM was found to be 34.8% and the remaining activity at 10 µM was found to be 65.2%.

Regarding `CCCCOc1ccc(S(=O)(=O)N2CCCC2C(=O)NO)cc1` (stereo not drawn) [T-29, 1-((4-butoxyphenyl)sulfonyl)-N-hydroxypyrrolidine-2-carboxamide], the remaining activity at 0.5 µM on MMP-1 stood at 100%. Also, the results for the remaining activity at 0.05 µM on MMP-2 [1] and on MMP-9 were 18.9% and 50.2%, respectively.

`O=C(NO)C(Cc1ccccc1)NS(=O)(=O)c1ccc2ccccc2c1` (stereo not drawn) [T-11, N-hydroxy-2-(naphthalene-2-sulfonamido)-3-phenylpropanamide]: the inhibition at 10 µM at MMP-1 is 42.9%; at MMP-2 [2], 93.8%. In addition, on MMP-1, the remaining activity at 0.5 µM was found to be 100%. Also, the remaining activity at 10 µM at MMP-1 was 57.1%; on MMP-2 [2], 6.2%. Moreover, the remaining activity at 0.05 µM at MMP-2 [1] amounted to 82.7%; at MMP-9 it was 100%.

As for `Cc1cc(C)c(S(=O)(=O)NC(C(=O)NO)C(C)C)c(C)c1` (stereo not drawn) [T-20, N-hydroxy-3-methyl-2-((2,4,6-trimethylphenyl)sulfonamido)butanamide], on MMP-1, the inhibition at 10 µM was found to be 0%, the remaining activity at 0.5 µM was 100% and the remaining activity at 10 µM worked out at 100%. In addition, the remaining activity at 0.05 µM at MMP-2 [1] is 97.8%. Besides, at MMP-9, the inhibition at 0.05 µM was 0% and the remaining activity at 0.05 µM amounted to 100%. At MMP-2 [2], the inhibition at 10 µM turned out to be 59.9% and the remaining activity at 10 µM was 40.1%.

Compound `CC(C)CC(NS(=O)(=O)c1ccccc1)C(=O)NO` (stereo not drawn) [T-36, N-hydroxy-4-methyl-2-(phenylsulfonamido)pentanamide] returned a remaining activity at 0.5 µM on MMP-1 of 98.2%. The remaining activity at 0.05 µM on MMP-2 [1] was found to be 100%; at MMP-9, 97.4%.

For the compound `CCCCOc1ccc(S(=O)(=O)NC(CC(C)C)C(=O)NO)cc1` (stereo not drawn) [T-14, 2-((4-butoxyphenyl)sulfonamido)-N-hydroxy-4-methylpentanamide], the remaining activity at 0.5 µM on MMP-1 turned out to be 100%. The compound further came in with a remaining activity at 0.05 µM at MMP-2 [1] of 0%. Moreover, on MMP-9, the inhibition at 0.05 µM was determined as 26.5% and the remaining activity at 0.05 µM was 73.5%.

`O=C(NO)C1CCCCN1S(=O)(=O)c1ccc(-c2ccccc2)cc1` (stereo not drawn) [T-02, 1-([1,1'-biphenyl]-4-ylsulfonyl)-N-hydroxypiperidine-2-carboxamide]: at MMP-9, the remaining activity at 0.05 µM came out at 41.9%.

Take `CC(C)CC(NS(=O)(=O)c1ccc(-c2ccccc2)cc1)C(=O)NO` (stereo not drawn) [T-12, 2-([1,1'-biphenyl]-4-sulfonamido)-N-hydroxy-4-methylpentanamide]: on MMP-9, the remaining activity at 0.05 µM was 70.6%.

The compound `O=C(NO)C1CCCCN1S(=O)(=O)c1ccc(F)cc1` (stereo not drawn) [T-21, 1-((4-fluorophenyl)sulfonyl)-N-hydroxypiperidine-2-carboxamide] gave a remaining activity at 0.5 µM at MMP-1 of 9.2%. Besides, the remaining activity at 0.05 µM was found to be 81.1% at MMP-2 [1] and 100% at MMP-9.

For the compound `CC(C)CC(NS(=O)(=O)c1ccc(C(C)(C)C)cc1)C(=O)NO` (stereo not drawn) [T-13, 2-((4-(tert-butyl)phenyl)sulfonamido)-N-hydroxy-4-methylpentanamide], at MMP-1, the inhibition at 10 µM is 0%, the remaining activity at 0.5 µM came out at 100% and the remaining activity at 10 µM is 100%. Moreover, the remaining activity at 0.05 µM at MMP-2 [1] was 100%. For the same compound, the remaining activity at 0.05 µM at MMP-9 came out at 100%. Moreover, at MMP-2 [2], the inhibition at 10 µM worked out at 71.9% and the remaining activity at 10 µM is 28.1%.

At MMP-1, `O=C(NO)C1CCCCN1S(=O)(=O)c1ccccc1` (stereo not drawn) [T-01, N-hydroxy-1-(phenylsulfonyl)piperidine-2-carboxamide] returned a remaining activity at 0.5 µM of 34.2%. Besides, the remaining activity at 0.05 µM came to 81.6% at MMP-2 [1] and 79.1% on MMP-9.
